Data reported in patent US8841483B2, “Compositions useful as inhibitors of voltage-gated sodium channels” (Vertex Pharmaceuticals Incorporated, priority 2006, dated 2014).

Biological target: NaV1.8 (Homo sapiens, UniProt Q9Y5Y9)
Assay: Activity against NaV 1.8 channel (Table 3), optical membrane potential / electrophysiology assays
Type: cell-based
Procedure: Compounds of the invention are useful as antagonists of voltage-gated sodium ion channels. Antagonist properties of test compounds were assessed as follows. Cells expressing the NaV of interest were placed into microtiter plates. After an incubation period, the cells were stained with fluorescent dyes sensitive to the transmembrane potential. The test compounds were added to the microtiter plate. The cells were stimulated with either a chemical or electrical means ti evoke a NaV dependent membrane potential change from unblocked channels, which was detected and measured with trans-membrane potential-sensitive dyes. Antagonists were detected as a decreased membrane potential response to the stimulus. The optical membrane potential assay utilized voltage-sensitive FRET sensors described by Gonzalez and Tsien (See, Gonzalez, J. E. and R. Y. Tsien (1995) “Voltage sensing by fluorescence resonance energy transfer in single cells” Biophys J 69(4): 1272-80, and Gonzalez, J. E. and R. Y. Tsien (1997) “Improved indicators of cell membrane potential that use fluorescence resonance energy transfer” Chem Biol 4(4): 269-77) in combination with instrumentation for measuring fluorescence changes such as the Voltage/Ion Probe Reader (VIPR®) (See, Gonzalez, J. E., K. Oades, et al. (1999) “Cell-based assays and instrumentation for screening ion-channel targets” Drug Discov Today 4(9): 431-439).
The following is an example of how NaV1.3 inhibition activity is measured using the optical membrane potential method #2. Other subtypes are performed in an analogous mode in a cell line expressing the NaV of interest.
HEK293 cells stably expressing NaV1.3 are plated into 96-well microtiter plates. After an appropriate incubation period, the cells are stained with the voltage sensitive dyes CC2-DMPE/DiSBAC2(3) as follows.
2X CC2-DMPE=20 μM CC2-DMPE: 10 mM CC2-DMPE is vortexed with an equivalent volume of 10% pluronic, followed by vortexing in required amount of HBSS containing 10 mM HEPES. Each cell plate will require 5 mL of 2X CC2-DMPE. 50 μL of 2X CC2-DMPE is to wells containing washed cells, resulting in a 10 μM final staining concentration. The cells are stained for 30 minutes in the dark at RT.
2X DISBAC2(3) with ABSC1=6 μM DISBAC2(3) and 1 mM ABSC1: The required amount of 10 mM DISBAC2(3) is added to a 50 ml conical tube and mixed with 1 μL 10% pluronic for each mL of solution to be made and vortexed together. Then HBSS/HEPES is added to make up 2X solution. Finally, the ABSC1 is added.
The 2X DiSBAC2(3) solution can be used to solvate compound plates. Note that compound plates are made at 2X drug concentration. Wash stained plate again, leaving residual volume of 50 μL. Add 50 uL/well of the 2X DiSBAC2(3) w/ABSC1. Stain for 30 minutes in the dark at RT.
The electrical stimulation instrument and methods of use are described in ION Channel Assay Methods PCT/US01/21652, herein incorporated by reference. The instrument comprises a microtiter plate handler, an optical system for exciting the coumarin dye while simultaneously recording the coumarin and oxonol emissions, a waveform generator, a current- or voltage-controlled amplifier, and a device for inserting electrodes in well. Under integrated computer control, this instrument passes user-programmed electrical stimulus protocols to cells within the wells of the microtiter plate.
Assay Protocol • 1. Insert or use electrodes into each well to be assayed. • 2. Use the current-controlled amplifier to deliver stimulation wave pulses for 3 s. Two seconds of pre-stimulus recording are performed to obtain the un-stimulated intensities. Five seconds of post-stimulation recording are performed to examine the relaxation to the resting state.
Data are analyzed and reported as normalized ratios of background-subtracted emission intensities measured in the 460 nm and 580 nm channels. Background intensities are then subtracted from each assay channel. […]

Compound	IC50 [µM]
CC(C)(C)c1ccc(C(=O)Nc2cccc(S(N)(=O)=O)c2)c(Oc2ccccc2)c1 [Compound 1]	< 2
NS(=O)(=O)c1cccc(NC(=O)c2ccccc2-n2cccc2)c1 [Compound 4]	> 10
NS(=O)(=O)c1cccc(NC(=O)c2ccccc2Nc2cccc(F)c2)c1 [Compound 6]	> 10
NS(=O)(=O)c1cccc(NC(=O)c2ccccc2Cc2ccccc2)c1 [Compound 7]	< 2
NS(=O)(=O)c1cccc(NC(=O)c2ccccc2-c2cccnc2)c1 [Compound 11]	> 10
NS(=O)(=O)c1cccc(NC(=O)c2ccccc2COc2ccccc2)c1 [Compound 12]	2 to 10
NS(=O)(=O)c1cccc(NC(=O)c2ccccc2Oc2ccc(C(F)(F)F)cc2)c1 [Compound 16]	< 2
NS(=O)(=O)c1cccc(NC(=O)c2ccccc2Nc2cccc(Oc3ccccc3)c2)c1 [Compound 17]	> 10
NS(=O)(=O)c1cccc(NC(=O)c2ccccc2NC(=O)c2cccnc2)c1 [Compound 20]	> 10
NS(=O)(=O)c1cccc(NC(=O)c2ccccc2Oc2ccccc2Cl)c1 [Compound 21]	< 2
COc1ccccc1Oc1ccccc1C(=O)Nc1cccc(S(N)(=O)=O)c1 [Compound 23]	< 2
Cc1c(Cl)cc(NC(=O)c2ccc(C(C)(C)C)cc2)cc1S(N)(=O)=O [Compound 24]	> 10
Cc1cc(C)c(S(N)(=O)=O)cc1NC(=O)c1ccc(C(C)(C)C)cc1 [Compound 25]	> 10
CC(C)(C)c1cccc(Nc2ccccc2C(=O)Nc2cccc(S(N)(=O)=O)c2)c1 [Compound 26]	> 10
NS(=O)(=O)c1cccc(NC(=O)c2ccccc2Nc2cccnc2)c1 [Compound 27]	2 to 10
CC(=O)c1cccc(Nc2ccccc2C(=O)Nc2cccc(S(N)(=O)=O)c2)c1 [Compound 36]	> 10
Cc1ccc(S(N)(=O)=O)cc1NC(=O)c1ccc(Cl)cc1[N+](=O)[O-] [Compound 41]	> 10
COc1cc(C)c(S(N)(=O)=O)cc1NC(=O)c1ccc(C(C)(C)C)cc1 [Compound 43]	> 10
CC(C)COC(=O)N1CCN(c2ccccc2C(=O)Nc2cccc(S(N)(=O)=O)c2)CC1 [Compound 45]	> 10
Cc1c(Cl)cc(S(N)(=O)=O)cc1NC(=O)c1ccc(C(C)(C)C)cc1 [Compound 46]	> 10
COc1ccc(Oc2ccccc2C(=O)Nc2cccc(S(N)(=O)=O)c2)cc1 [Compound 50]	2 to 10
NS(=O)(=O)c1cccc(NC(=O)c2ccccc2OCc2ccccc2)c1 [Compound 51]	> 10
NS(=O)(=O)c1cccc(NC(=O)c2ccccc2Oc2ccccc2N2CCCCC2)c1 [Compound 53, 2-(2-(Piperidin-1-yl)phenoxy)-N-(3-(aminosulfonyl)phenyl)benzamide]	< 2
Cc1ccccc1Oc1cc(C(C)(C)C)ccc1C(=O)Nc1cccc(S(N)(=O)=O)c1 [Compound 55]	< 2
Cc1ccc(Oc2ccccc2C(=O)Nc2cccc(S(N)(=O)=O)c2)cc1 [Compound 59]	2 to 10
CC(C)(C)c1ccc(C(=O)Nc2cccc(S(N)(=O)=O)c2)c(Oc2cccnc2)c1 [Compound 61]	< 2
NS(=O)(=O)c1cccc(NC(=O)c2ccccc2Oc2ccccc2)c1 [Compound 63]	2 to 10
NS(=O)(=O)c1cccc(NC(=O)c2ccccc2NCc2ccccc2)c1 [Compound 68]	> 10

Now from value to compound:

IC50 [µM]	Compound
> 10	Cc1cc(Br)ccc1C(=O)Nc1cccc(S(N)(=O)=O)c1 [Compound 2]
> 10	NS(=O)(=O)c1cccc(NC(=O)c2ccc(Cl)c(Cl)c2)c1 [Compound 3]
> 10	NS(=O)(=O)c1cccc(NC(=O)c2ccc(Cc3ccccc3)cc2)c1 [Compound 5]
> 10	NS(=O)(=O)c1cccc(NC(=O)c2ccc(C(F)(F)F)cc2)c1 [Compound 8]
> 10	COc1ccc(C(=O)Nc2cccc(S(N)(=O)=O)c2)cc1OC [Compound 9]
2 to 10	CC(C)c1ccc(C(=O)Nc2cccc(S(N)(=O)=O)c2)cc1 [Compound 10]
> 10	NS(=O)(=O)c1cccc(NC(=O)c2ccc(Br)cc2)c1 [Compound 13]
2 to 10	CNS(=O)(=O)c1cccc(NC(=O)c2ccc(C(C)(C)C)cc2)c1 [Compound 14]
2 to 10	NS(=O)(=O)c1cccc(NC(=O)c2cccc(Oc3ccccc3)c2)c1 [Compound 15]
> 10	NS(=O)(=O)c1cccc(NC(=O)c2cccc(C(=O)c3ccccc3)c2)c1 [Compound 18]
> 10	NS(=O)(=O)c1cccc(NC(=O)c2ccc(-c3ncc[nH]3)cc2)c1 [Compound 19]
> 10	COc1ccc(C(=O)Nc2cccc(S(N)(=O)=O)c2)cc1 [Compound 22]
> 10	CCc1ccc(C(=O)Nc2cccc(S(N)(=O)=O)c2)cc1 [Compound 28]
> 10	Cc1cc(Cl)ccc1C(=O)Nc1cccc(S(N)(=O)=O)c1 [Compound 29]
> 10	NS(=O)(=O)c1cccc(NC(=O)c2ccccc2OC(F)(F)F)c1 [Compound 30]
> 10	NS(=O)(=O)c1cccc(NC(=O)c2ccc(Cl)cc2)c1 [Compound 31]
> 10	NS(=O)(=O)c1cccc(NC(=O)c2ccc3c(c2)OCO3)c1 [Compound 32]
> 10	CN(C)c1ccc(C(=O)Nc2cccc(S(N)(=O)=O)c2)cc1 [Compound 33]
> 10	NS(=O)(=O)c1cccc(NC(=O)c2ccc(OC(F)(F)F)cc2)c1 [Compound 34, N-(3-(Aminosulfonyl)phenyl)-4-(trifluoromethoxy)benzamide]
> 10	NS(=O)(=O)c1cccc(NC(=O)c2cccc(C(F)(F)F)c2)c1 [Compound 35]

IC50 [µM]	Compound
> 10	COC(=O)c1ccc(C(=O)Nc2cccc(S(N)(=O)=O)c2)cc1 [Compound 37]
> 10	Cc1ccc(C(=O)Nc2cccc(S(N)(=O)=O)c2)cc1 [Compound 38]
> 10	NS(=O)(=O)c1cccc(NC(=O)c2cccc(Br)c2)c1 [Compound 40]
> 10	COc1ccc(C(=O)Nc2cccc(S(N)(=O)=O)c2)cc1C(F)(F)F [Compound 42]
> 10	CN(C)c1ccccc1C(=O)Nc1cccc(S(N)(=O)=O)c1 [Compound 44]
> 10	NS(=O)(=O)c1cccc(NC(=O)c2ccccc2C(F)(F)F)c1 [Compound 47]
< 2	CC(C)(C)c1ccc(C(=O)Nc2cccc(S(N)(=O)=O)c2)c(Oc2ccccc2Cl)c1 [Compound 48]
> 10	NS(=O)(=O)c1cccc(NC(=O)c2ccc(-c3ncns3)cc2)c1 [Compound 49]
> 10	N#Cc1ccc(C(=O)Nc2cccc(S(N)(=O)=O)c2)cc1 [Compound 52]
> 10	CC(=O)Nc1ccc(C(=O)Nc2cccc(S(N)(=O)=O)c2)cc1 [Compound 54]
> 10	CS(=O)(=O)c1ccc(C(=O)Nc2cccc(S(N)(=O)=O)c2)cc1 [Compound 56]
> 10	CCCCOc1ccc(C(=O)Nc2cccc(S(N)(=O)=O)c2)cc1 [Compound 57]
> 10	NS(=O)(=O)c1cccc(NC(=O)c2ccc(-c3ccccc3)cc2)c1 [Compound 58]
> 10	NS(=O)(=O)c1cccc(NC(=O)c2ccc(SC(F)(F)F)cc2)c1 [Compound 60]
> 10	NS(=O)(=O)c1cccc(NC(=O)c2ccc3ccccc3c2)c1 [Compound 62]
> 10	CCOc1ccc(C(=O)Nc2cccc(S(N)(=O)=O)c2)cc1 [Compound 64]
> 10	CCc1cc(C(=O)Nc2cccc(S(N)(=O)=O)c2)ccc1-c1ccccc1 [Compound 65]
> 10	CCCc1ccc(C(=O)Nc2cccc(S(N)(=O)=O)c2)cc1 [Compound 66]
< 2	CC(C)(C)c1ccc(C(=O)Nc2cccc(S(N)(=O)=O)c2)cc1 [Compound 67]
